# Experimental data: patent US20070004660A1, “Synergistic Modulation of Flt3 Kinase Using Alkylquinolines and Alkylquinazolines” (priority 2005, published 2007)
# pIC50: −log10 of the molar value.
# Target: T1, isolated kinase domain of the human FLT3 receptor (a.a. 571-993) (Homo sapiens, UniProt P36888)
# T1 construct: human FLT3 receptor (a.a. 571-993)
# T1 sequence (P36888 571-993): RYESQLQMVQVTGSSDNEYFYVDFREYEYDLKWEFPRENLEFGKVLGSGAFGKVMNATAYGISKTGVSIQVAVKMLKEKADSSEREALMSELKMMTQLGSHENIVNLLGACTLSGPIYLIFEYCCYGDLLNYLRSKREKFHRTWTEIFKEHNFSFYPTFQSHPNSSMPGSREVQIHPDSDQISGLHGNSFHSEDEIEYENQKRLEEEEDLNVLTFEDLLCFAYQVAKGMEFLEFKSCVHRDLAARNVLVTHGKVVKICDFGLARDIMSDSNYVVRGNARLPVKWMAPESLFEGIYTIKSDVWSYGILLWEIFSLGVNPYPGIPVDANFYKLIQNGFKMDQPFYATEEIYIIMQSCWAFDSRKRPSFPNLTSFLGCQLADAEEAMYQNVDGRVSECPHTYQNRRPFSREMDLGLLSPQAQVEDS
# Experiment: FLT3 fluorescence polarization kinase assay
# Assay type: biochemical
# Settings: 150 uM ATP; uncertainty ±10%
row,Structure (SMILES),pIC50
1,"O=C(Nc1ccc(N2CCCC2)nc1)N1CCC(c2ncnc3cc(OCCN4CCOC4=O)ccc23)CC1 [Example 92, 4-{7-[2-(2-Oxo-oxazolidin-3-yl)-ethoxy]-quinazolin-4-yl}-piperidine-1-carboxylic acid (6-pyrrolidin-1-yl-pyridin-3-yl)-amide]",9.70
2,"CS(=O)(=O)OCCCOc1ccc2c(C3CCN(C(=O)Nc4ccc(N5CCOCC5)cc4)CC3)ncnc2c1 [Example 122, Methanesulfonic acid 3-{4-[1-(4-morpholin-4-yl-phenylcarbamoyl)-piperidin-4-yl]-quinazolin-7-yloxy}-propyl ester]",7.64
3,"COc1cc2ncnc(C3CCN(C(=O)Nc4ccc(C5=CCN(C(=O)OC(C)(C)C)CC5)cc4)CC3)c2cc1OC [Example 61, 4-(4-{[4-(6,7-Dimethoxy-quinazolin-4-yl)-piperidine-1-carbonyl]-amino}-phenyl)-3,6-dihydro-2H-pyridine-1-carboxylic acid tert-butyl ester]",5.07
4,O=C(Nc1ccc(N2CCOCC2)cc1)N1CCC(c2ncnc3cc(OCCCN4CCCCC4)ccc23)CC1 [Example 75],7.31
5,"CCN1CCN(CCCOc2ccc3c(C4CCN(C(=O)Nc5ccc(N6CCOCC6)cc5)CC4)ncnc3c2)CC1 [Example 115, 4-{7-[3-(4-Ethyl-piperazin-1-yl)-propoxy]-quinazolin-4-yl}-piperidine-1-carboxylic acid (4-morpholin-4-yl-phenyl)-amide]",7.80
6,"O=C1CCCN1CCCOc1ccc2c(C3CCN(C(=O)Nc4ccc(N5CCOCC5)cc4)CC3)ncnc2c1 [Example 68, 4-{7-[3-(2-Oxo-pyrrolidin-1-yl)-propoxy]-quinazolin-4-yl}-piperidine-1-carboxylic acid (4-morpholin-4-yl-phenyl)-amide]",7.43
7,"CN1CCC(COc2ccc3c(C4CCN(C(=O)Nc5ccc(N6CCCC6)nc5)CC4)ncnc3c2)CC1 [Example 99, 4-[7-(1-Methyl-piperidin-4-ylmethoxy)-quinazolin-4-yl]-piperidine-1-carboxylic acid (6-pyrrolidin-1-yl-pyridin-3-yl)-amide]",9.00
8,"CC(C)Oc1ccc(NC(=O)N2CCC(c3ncnc4cc(OCCCN5CCCC5=O)ccc34)CC2)cc1 [Example 67, 4-{7-[3-(2-Oxo-pyrrolidin-1-yl)-propoxy]-quinazolin-4-yl}-piperidine-1-carboxylic acid (4-isopropoxy-phenyl)-amide]",8.52
9,"CN1CCC(COc2ccc3c(C4CCN(C(=O)Nc5ccc(N6CCCC6)cc5)CC4)ncnc3c2)CC1 [Example 109, 4-[7-(1-Methyl-piperidin-4-ylmethoxy)-quinazolin-4-yl]-piperidine-1-carboxylic acid (4-pyrrolidin-1-yl-phenyl)-amide]",7.46
10,"O=C(Nc1ccc(N2CCOCC2)cc1)N1CCC(c2ncnc3cc(OCCCN4CCCC4)ccc23)CC1 [Example 124, 4-[7-(3-Pyrrolidin-1-yl-propoxy)-quinazolin-4-yl]-piperidine-1-carboxylic acid (4-morpholin-4-yl-phenyl)-amide]",7.68
11,"COc1cc2ncnc(C3CCN(C(=O)Nc4ccc(OC5CCCC5)nc4)CC3)c2cc1OC [Example 69, 4-(6,7-Dimethoxy-quinazolin-4-yl)-piperidine-1-carboxylic acid (6-cyclopentyloxy-pyridin-3-yl)-amide]",7.12
12,"CN1CCN(CCCOc2ccc3c(C4CCN(C(=O)Nc5ccc(N6CCOCC6)nc5)CC4)ncnc3c2)CC1 [Example 80, 4-{7-[3-(4-Methyl-piperazin-1-yl)-propoxy]-quinazolin-4-yl}-piperidine-1-carboxylic acid (6-morpholin-4-yl-pyridin-3-yl)-amide]",8.40
13,"COc1cc2ncnc(C3CCN(C(=O)Nc4ccc(N5CCCC5=O)cc4)CC3)c2cc1OC [Example 57, 4-(6,7-Dimethoxy-quinazolin-4-yl)-piperidine-1-carboxylic acid [4-(2-oxo-pyrrolidin-1-yl)-phenyl]-amide]",6.15
14,"COc1cc2ncnc(C3CCN(C(=O)Nc4ccc(C(C)C)cc4)CC3)c2cc1OC [Example 4, 4-(6,7-Dimethoxy-quinazolin-4-yl)-piperidine-1-carboxylic acid (4-isopropyl-phenyl)-amide]",8.05
15,"CCC(C)c1ccc(NC(=O)N2CCC(c3ncnc4cc(OC)c(OC)cc34)CC2)cc1 (stereo not drawn) [Example 52, 4-(6,7-Dimethoxy-quinazolin-4-yl)-piperidine-1-carboxylic acid (4-sec-butyl-phenyl)-amide]",7.72
16,"COc1cc2ncnc(C3CCN(C(=O)Nc4ccc(-c5cncnc5)cc4)CC3)c2cc1OC [Example 58, 4-(6,7-Dimethoxy-quinazolin-4-yl)-piperidine-1-carboxylic acid (4-pyrimidin-5-yl-phenyl)-amide]",5.70
17,"CN1CCCN(CCCOc2ccc3c(C4CCN(C(=O)Nc5ccc(N6CCOCC6)cc5)CC4)ncnc3c2)CC1 [Example 125, 4-{7-[3-(4-Methyl-[1,4]diazepan-1-yl)-propoxy]-quinazolin-4-yl}-piperidine-1-carboxylic acid (4-morpholin-4-yl-phenyl)-amide]",8.22
18,"O=C1CCCN1CCOc1ccc2c(C3CCN(C(=O)Nc4ccc(N5CCOCC5)nc4)CC3)ncnc2c1 [Example 83, 4-{7-[2-(2-Oxo-pyrrolidin-1-yl)-ethoxy]-quinazolin-4-yl}-piperidine-1-carboxylic acid (6-morpholin-4-yl-pyridin-3-yl)-amide]",7.70
19,"CC(C)Oc1ccc(NC(=O)N2CCC(c3ncnc4cc(OCCCNS(C)(=O)=O)ccc34)CC2)cc1 [Example 65, 4-[7-(3-Methanesulfonylamino-propoxy)-quinazolin-4-yl]-piperidine-1-carboxylic acid (4-isopropoxy-phenyl)-amide]",7.72
20,"CCOc1ccc(NC(=O)N2CCC(c3ncnc4cc(OC)c(OC)cc34)CC2)cc1 [Example 44, 4-(6,7-Dimethoxy-quinazolin-4-yl)-piperidine-1-carboxylic acid (4-ethoxy-phenyl)-amide]",6.82
21,"CC(C)Oc1ccc(NC(=O)N2CCC(c3ncnc4ccc(OCCCN5CCCC5=O)cc34)CC2)cc1 [Example 101, 4-{6-[3-(2-Oxo-pyrrolidin-1-yl)-propoxy]-quinazolin-4-yl}-piperidine-1-carboxylic acid (4-isopropoxy-phenyl)-amide]",9.10
22,"CS(=O)(=O)N1CCN(CCCOc2ccc3c(C4CCN(C(=O)Nc5ccc(N6CCOCC6)cc5)CC4)ncnc3c2)CC1 [Example 118, 4-{7-[3-(4-Methanesulfonyl-piperazin-1-yl)-propoxy]-quinazolin-4-yl}-piperidine-1-carboxylic acid (4-morpholin-4-yl-phenyl)-amide]",8.10
23,"CC(C)Oc1ccc(NC(=O)N2CCC(c3ncnc4ccc(C#CCN5CCCCC5)cc34)CC2)cc1 [Example 14, 4-[6-(3-Piperidin-1-yl-prop-1-ynyl)-quinazolin-4-yl]-piperidine-1-carboxylic acid (4-isopropoxy-phenyl)-amide]",7.28
24,"CN1CCC(COc2ccc3c(C4CCN(C(=O)Nc5ccc(OC6CCC6)nc5)CC4)ncnc3c2)CC1 [Example 107, 4-[7-(1-Methyl-piperidin-4-ylmethoxy)-quinazolin-4-yl]-piperidine-1-carboxylic acid (6-cyclobutoxy-pyridin-3-yl)-amide]",9.00
